The target in experiment [1] is T1, Phosphatidylinositol 4,5-bisphosphate 3-kinase catalytic subunit gamma isoform (Homo sapiens, UniProt P48736). The experiment is described as follows: Inhibition of PI3K p120gamma (unknown origin) using phosphatidylinositol 4,5-bisphosphate as substrate in presence of ATP incubated for 60 mins by ADP-Glo assay. On the technique in general: In ADP-Glo the light output rises with the ADP produced.

For experiment [2], the species on record is Homo sapiens. As to the kind of experiment: Selectivity index, ratio of inhibition for PI3Kalpha (unknown origin) to inhibition for PI3K p120 gamma (unknown origin) using phosphatidylinositol 4,5-bisphosphate as substrate in presence of ATP incubated for 60 mins by ADP-Glo assay.
The species named for experiment [3] is Homo sapiens. As to the kind of experiment: Selectivity index, ratio of inhibition for PI3Kdelta (unknown origin) to inhibition for PI3K p120 gamma (unknown origin) using phosphatidylinositol 4,5-bisphosphate as substrate in presence of ATP incubated for 60 mins by ADP-Glo assay.
Experiment [4] deals with T1, Phosphatidylinositol 4,5-bisphosphate 3-kinase catalytic subunit gamma isoform. The experiment is described as follows: Inhibition of PI3Kgamma in human THP-1 cells assessed as reduction in Akt phosphorylation at S473 residue incubated for 60 mins measured after 120 mins by alphalisa assay. Format: cell-based. (Alpha assays give light when donor and acceptor beads are brought close together.)

T1 sequence (P48736 whole entry, canonical isoform): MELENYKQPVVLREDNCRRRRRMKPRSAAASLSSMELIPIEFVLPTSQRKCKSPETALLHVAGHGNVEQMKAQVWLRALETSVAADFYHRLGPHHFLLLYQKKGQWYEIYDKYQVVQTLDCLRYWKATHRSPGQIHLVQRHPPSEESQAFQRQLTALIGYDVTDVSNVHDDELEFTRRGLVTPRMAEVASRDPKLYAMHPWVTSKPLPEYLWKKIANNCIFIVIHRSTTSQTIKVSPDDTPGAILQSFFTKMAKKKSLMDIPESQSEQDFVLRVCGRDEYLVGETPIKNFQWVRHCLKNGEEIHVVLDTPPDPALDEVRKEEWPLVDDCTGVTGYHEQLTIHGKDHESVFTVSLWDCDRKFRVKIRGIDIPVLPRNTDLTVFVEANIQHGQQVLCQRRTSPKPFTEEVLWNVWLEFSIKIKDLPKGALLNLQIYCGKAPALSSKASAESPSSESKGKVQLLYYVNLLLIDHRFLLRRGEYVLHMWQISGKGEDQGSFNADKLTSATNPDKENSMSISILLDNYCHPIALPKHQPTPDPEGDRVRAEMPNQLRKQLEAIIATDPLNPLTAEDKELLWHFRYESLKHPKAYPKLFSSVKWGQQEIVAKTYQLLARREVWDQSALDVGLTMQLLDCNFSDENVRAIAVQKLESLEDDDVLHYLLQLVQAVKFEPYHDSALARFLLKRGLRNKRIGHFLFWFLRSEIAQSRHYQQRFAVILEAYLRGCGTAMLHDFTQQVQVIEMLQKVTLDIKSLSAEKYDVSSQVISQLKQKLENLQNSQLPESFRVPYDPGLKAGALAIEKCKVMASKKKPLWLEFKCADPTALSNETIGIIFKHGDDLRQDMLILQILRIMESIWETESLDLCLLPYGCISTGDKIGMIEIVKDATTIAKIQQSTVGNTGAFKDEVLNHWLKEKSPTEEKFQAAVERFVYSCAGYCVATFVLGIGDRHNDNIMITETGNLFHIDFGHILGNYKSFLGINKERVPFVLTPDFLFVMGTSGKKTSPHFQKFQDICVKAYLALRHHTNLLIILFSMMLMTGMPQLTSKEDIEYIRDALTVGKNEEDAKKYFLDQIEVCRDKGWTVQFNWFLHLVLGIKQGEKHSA

For the compound `CNS(=O)(=O)c1cc(-c2cnc3[nH]cc(-c4cnn(C)c4)c3c2)cc2c1C(=O)N([C@@H](C)C1CC1)C2`, the 50% inhibitory concentration (IC50) was determined as 4 nM in experiment [1] and 70 nM in experiment [4]. For the same compound, the Selectivity ratio in experiment [2] is > 4160; in experiment [3], 101.
Consider `C[C@@H](C1CC1)N1Cc2cc(-c3cnc4[nH]cc(-c5cnn(C)c5)c4c3)cc(NS(C)(=O)=O)c2C1=O`, for which the figures for the IC50 in experiment [1] and in experiment [4] were 4 nM and 150 nM, respectively. The Selectivity ratio was 449 in experiment [2] and 615 in experiment [3].
In the same order, the values of `Cc1cc(-c2cnc3[nH]cc(-c4ccnc(C(F)(F)F)c4)c3c2)cc2c1C(=O)N([C@@H](C)C1CC1)C2` are 16 nM, 4000 nM, > 578 and > 552.
In the same order, the values of `CC[C@@H](C1CC1)N1Cc2cc(-c3cnc4[nH]cc(-c5ccncc5)c4c3)cc(C)c2C1=O` are 6 nM, 800 nM, 255 and > 414.
`Cc1cc(-c2cnc3[nH]cc(-c4ccc(C(=O)O)c(C(F)(F)F)c4)c3c2)cc2c1C(=O)N([C@@H](C)C1CC1)C2`: the half-inhibitory concentration (IC50) turned out to be 1.64 nM in experiment [1] and 350 nM in experiment [4]. For the same compound, the figures for the Selectivity ratio in experiment [2] and in experiment [3] were 380 and 591, respectively.
On to `Cc1cc(-c2cnc3[nH]cc(-c4ccc(C(=O)O)c(F)c4)c3c2)cc2c1C(=O)N([C@@H](C)C1CC1)C2`, for which the values for the IC50 in experiment [1] and in experiment [4] were 3.1 nM and 700 nM, respectively. For the same compound, the Selectivity ratio in experiment [2] was 546; in experiment [3] it was 1050.
In the case of `Cc1cc(-c2cnc3[nH]cc(-c4cnn(C)c4)c3c2)cc2c1C(=O)N([C@@H](C)C1CC1)C2`, the results for the IC50 in experiment [1] and in experiment [4] were 3.26 nM and 200 nM, respectively. Moreover, the Selectivity ratio came to 898 in experiment [2] and 379 in experiment [3].
With `COc1cc(-c2cnc3[nH]cc(-c4cnn(C)c4)c3c2)cc2c1C(=O)N([C@@H](C)C1CC1)C2`, the results for the concentration for half-maximal inhibition (IC50) in experiment [1] and in experiment [4] were 4.3 nM and 170 nM, respectively. Further, the results for the Selectivity ratio in experiment [2] and in experiment [3] were > 1670 and 365, respectively.
`Cc1cc(-c2cnc3[nH]ncc3n2)cc2c1C(=O)N([C@@H](C)C1CC1)C2`: in experiment [1], the half-maximal inhibitory concentration (IC50) came out at 80 nM.
In the case of `Cc1cc(-c2cnc3[nH]cc(-c4ccncc4)c3c2)cc2c1C(=O)N([C@@H](C)c1ccc(F)cc1)C2`, the IC50 is 40 nM in experiment [1] and 2100 nM in experiment [4]. Moreover, the Selectivity ratio was 142 in experiment [2] and > 190 in experiment [3].
As to `Cc1cc(-c2cnc3[nH]cc(-c4ccc(C(=O)O)c(N5CCCC5)c4)c3c2)cc2c1C(=O)N([C@@H](C)C1CC1)C2`, the IC50 was found to be 4 nM in experiment [1] and 170 nM in experiment [4]. For the same compound, the Selectivity ratio in experiment [2] was determined as 853; in experiment [3], 49.
With `CC(=O)Nc1cc(-c2cnc3[nH]cc(-c4cnn(C)c4)c3c2)cc2c1C(=O)N([C@@H](C)C1CC1)C2`, the IC50 is 2.5 nM in experiment [1] and 500 nM in experiment [4]. The Selectivity ratio in experiment [2] was > 1060; in experiment [3], > 2740.
`Cc1cc(-c2cnc3cn[nH]c3c2)cc2c1C(=O)N(C(C)C1CC1)C2` (racemic): in experiment [1], the IC50 was determined as 490 nM.
As for `Cc1cc(-c2cnc3[nH]cc(-c4ccc(C(N)=O)cc4)c3c2)cc2c1C(=O)N([C@@H](C)C1CC1)C2`, the IC50 in experiment [1] was 2.59 nM; in experiment [4], 230 nM. In addition, the values for the Selectivity ratio in experiment [2] and in experiment [3] were 711 and 226, respectively.
With `Cc1cc(-c2cnc3[nH]cc(-c4ccncc4)c3c2)cc2c1C(=O)N(C(C)(C)C1CC1)C2`, the IC50 was found to be 28 nM in experiment [1] and 1100 nM in experiment [4]. The results for the Selectivity ratio in experiment [2] and in experiment [3] were 74 and 100, respectively.
For `C[C@@H](C1CC1)N1Cc2cc(-c3cnc4[nH]cc(-c5cnn(C)c5)c4c3)cc(S(=O)(=O)N(C)C)c2C1=O`, in that order: 2.6 nM, 100 nM, 254 and 159.
In the same order, the values of `C[C@@H](C1CC1)N1Cc2cc(-c3cnc4[nH]cc(-c5cnn(C)c5)c4c3)cc(Cl)c2C1=O` are 2.4 nM, 170 nM, 455 and 533.
Regarding `CC(C)c1cc(-c2cnc3[nH]cc(-c4cnn(C)c4)c3c2)cc2c1C(=O)N([C@@H](C)C1CC1)C2`, the IC50 in experiment [1] amounted to 4.2 nM; in experiment [4], 300 nM. Also, the Selectivity ratio in experiment [2] stood at 898; in experiment [3] it was 1380.
`Cc1cc(-c2cnc3[nH]cc(-c4ccncc4)c3c2)cc2c1C(=O)N([C@H](C)C1CC1)C2`: the IC50 in experiment [1] was determined as 9 nM.
`Cc1cc(-c2cnc3[nH]cc(-c4ccncc4)c3c2)cc2c1C(=O)N(C(C)(C)C)C2`: the concentration for half-maximal inhibition (IC50) amounted to 26 nM in experiment [1] and 720 nM in experiment [4]. The figures for the Selectivity ratio in experiment [2] and in experiment [3] were 62 and 107, respectively.
As for `Cc1cc(-c2cnc3[nH]nnc3c2)cc2c1C(=O)N(C(C)C1CC1)C2` (racemic), the half-maximal inhibitory concentration (IC50) in experiment [1] was determined as 1600 nM.
On the same count and under the same terms, as for `Cc1cc(-c2cnc3[nH]ccc3c2)cc2c1C(=O)N([C@@H](C)C1CC1)C2`, the figure is 50 nM.
Take `COc1cc(-c2c[nH]c3ncc(-c4cc(C)c5c(c4)CN([C@@H](C)C4CC4)C5=O)cc23)ccc1C(=O)O`: the results for the IC50 in experiment [1] and in experiment [4] were 1.5 nM and 170 nM, respectively. Also, the Selectivity ratio in experiment [2] came out at 369; in experiment [3] it was 494.
In the same order, the values of `Cc1cc(-c2cnc3[nH]cc(-c4ccc(C(=O)O)c(C5CC5)c4)c3c2)cc2c1C(=O)N([C@@H](C)C1CC1)C2` are 1.6 nM, 40 nM, 585 and 494.
For `C[C@@H](C1CC1)N1Cc2cc(-c3cnc4[nH]cc(-c5cnn(C)c5)c4c3)cc(C#N)c2C1=O`, in that order: 3.7 nM, 170 nM, 1060 and 244.
Take `C[C@@H](C1CC1)N1Cc2cc(-c3cnc4[nH]cc(-c5cnn(C)c5)c4c3)cc(S(C)(=O)=O)c2C1=O`: the figures for the IC50 in experiment [1] and in experiment [4] were 1.5 nM and 50 nM, respectively. Moreover, the Selectivity ratio in experiment [2] was 1020; in experiment [3] it was 289.
In the same order, the values of `Cc1cc(-c2cnc3[nH]cc(-c4cccc(C(=O)O)c4)c3c2)cc2c1C(=O)N([C@@H](C)C1CC1)C2` are 2.7 nM, 110 nM, 321 and 772.
Consider `Cc1cc(-c2cnc3[nH]nc(-c4ccncc4)c3c2)cc2c1C(=O)N([C@@H](C)C1CC1)C2`, for which the IC50 in experiment [1] was found to be 8 nM.
On to `Cc1cc(-c2cnc3c(c2)CC(=O)N3)cc2c1C(=O)N(C(C)C1CC1)C2` (racemic), for which, in experiment [1], the IC50 was found to be 600 nM.
On the same count and under the same terms, as for `Cc1cc(-c2cnc3[nH]ncc3c2)cc2c1C(=O)N(C(C)C1CC1)C2` (racemic), the figure is 90 nM.
Take `Cc1cc(-c2cnc3[nH]c(=O)ccc3c2)cc2c1C(=O)N(C(C)C1CC1)C2` (racemic): the half-inhibitory concentration (IC50) in experiment [1] worked out at 530 nM.
Same read-out and setting: as for `Cc1cc(-c2cnc3[nH]ncc3c2)cc2c1C(=O)N([C@@H](C)C1CC1)C2`, the figure is 35 nM.

By IC50 is commonly meant the concentration at which inhibition is half-maximal.

The values are drawn from ChEMBL document CHEMBL4725475, “Discovery of Potent and Selective 7-Azaindole Isoindolinone-Based PI3Kγ Inhibitors” (ACS Med Chem Lett, 2020).
